Measurements published in patent publication US20240226072A1 (Stichting Het Nederlands Kanker Instituut, priority 2022, published 2024).

Assays:
[1] = Plasma pharmacokinetics and tissue distribution 2 h after oral cabazitaxel 10 mg/kg with vehicle or 25 mg/kg ritonavir in wild-type, Oatp1a/1b−/−, Oatp1a/1b/2b1−/−, OATP1B1- and OATP1B3-transgenic mice; assay type: in vivo; details: for Cmax / Tmax / AUC(0-t): male, FVB, mouse, plasma, po, 10 mg/kg; for AUC(0-t): read-out: AUC0-2 h; for enhancement of AUC0-2h by ritonavir: ritonavir 25 mg/kg compared to vehicle group; for CLiver / Cbrain / Pbrain, brain accumulation per h / SIC (% of dose), small intestinal content: 2 h
Procedure: All animals were fasted 2 to 3 hours prior to the start of the experiment to minimize variation in absorption after oral administration. […] Subsequently, cardiac puncture was performed with a heparinized needle and syringe collecting a final blood sample. […] All samples were stored at −30° C. until analysis.
Differences were considered statistically significant when P<0.05. All data are presented as geometric mean±SD.

[2] = in vivo; details: mouse; for AUC(0-t) / AUC0-24 h: po; for AUC(0-t): AUC0-24 h
Procedure: (§1) The Jevtana (10 mg/mL) solution contains 0.26 mg/mL polysorbate 80 and 15% (w/v) ethanol, and is adjusted to pH 2-6 with citric acid. […] The stock solution was further diluted 5-fold with water to reach a 2.5 mg/mL dosing solution for oral administration. The vehicle solution only consists of polysorbate 80, ethanol and water (1:1:8, v/v/v). […] All dosing solutions were prepared freshly on the day of the experiment.
(§2) At the termination time point of 24 hours, mice were anesthetized using an isoflurane evaporator with 3% isoflurane with 0.8 L/min air and 0.3 L/min oxygen. A final blood sample was taken using cardiac puncture, using Eppendorf tubes previously prepared with heparin as an anticoagulant. Subsequently, the anesthetized mice were sacrificed by cervical dislocation and the tissues of interest were collected. Brain, liver, spleen, kidney, small intestine, and testis were collected. The small intestinal content (SIC) was separately collected by removing this from the small intestinal tissue, which was subsequently rinsed with saline to remove possibly fecal residue. The blood samples were centrifuged at 9,000×g for 6 minutes at 4° C., and the plasma fraction was isolated and stored at −30° C. until analysis. Brain, liver, spleen, kidney, small intestinal tissue, SIC, and testis were homogenized in a FastPrep-24™ 5G homogenizer (M. P. Biomedicals, Santa Ana, CA, USA) for 1 min with 1, 3, 1, 2, 3, 2, and 1 mL of 2% (w/v) BSA in Milli-Q water, respectively. Until analysis of the samples, they were all stored at −30° C.
(§3) Pharmacokinetic parameters were estimated by non-compartmental analysis using the software package of PK solutions 2.0.2 (SUMMIT, Research Service). The area under the curve (AUC) of the plasma-concentration time curve for all the compounds was calculated using the linear trapezoidal rule without extrapolating to infinity. The peak plasma concentration (Cmax) and the time to reach peak plasma concentration (Tmax) were obtained directly from the individual raw data. For the statistical analysis and the graphs GraphPad Prism 9 (GraphPad Software Inc., La Jolla, CA, USA) was used. The statistics for the comparison of multiple groups were calculated with the one-way analysis of variance (ANOVA), whereas Sidak's post hoc correction was performed. Log-transformation before statistical analysis was applied, when variances within the groups were not homogeneously distributed. Differences were considered statistically significant when P<0.05. All data are presented as geometric mean±SD.

[3] = in vivo; details: male, mouse; for Kp at 24 h: Brain-to-plasma ratio
Procedure: as §1, §2, §3
The last parameter is in many cases the most useful, as it takes the overall exposure into account.

[4] = input of human simulation, cited from earlier work
[5] = OATP1B3-transgenic mice, ritonavir 25 mg/kg oral, cabazitaxel 10 mg/kg oral
[6] = OATP1B3-transgenic mice, vehicle pretreatment, oral 10 mg/kg cabazitaxel
[7] = OATP1B3-transgenic mice, vehicle, cabazitaxel 10 mg/kg oral
[8] = Oatp1a/1b/2b1−/− mice, ritonavir 25 mg/kg oral, cabazitaxel 10 mg/kg oral
[9] = Oatp1a/1b/2b1−/− mice, vehicle pretreatment, oral 10 mg/kg cabazitaxel
[10] = Oatp1a/1b/2b1−/− mice, vehicle, cabazitaxel 10 mg/kg oral
[11] = Oatp1a/1b−/− mice, ritonavir 25 mg/kg oral, cabazitaxel 10 mg/kg oral
[12] = Oatp1a/1b−/− mice, vehicle pretreatment, oral 10 mg/kg cabazitaxel
[13] = Oatp1a/1b−/− mice, vehicle, cabazitaxel 10 mg/kg oral
[14] = wild-type mice, ritonavir 25 mg/kg oral, cabazitaxel 10 mg/kg oral
[15] = wild-type mice, vehicle pretreatment, oral 10 mg/kg cabazitaxel
[16] = wild-type mice, vehicle, cabazitaxel 10 mg/kg oral
[17] = Cyp3aXAV vs Cyp3a−/− (FVB background)
[18] = Cyp3aXAV vs Cyp3a−/− (FVB background), 24 h

- Cmax [1, 5]: 3860 nM
- Tmax [1, 5]: 60 min
- Cmax [1, 6]: 2690 ± 761 nM
- Tmax [1, 6]: 27.5 min
- AUC(0-t) ([1]; OATP1B3-transgenic mice, vehicle pretreatment, oral 10 mg/kg cabazitaxel, 0-2 h): 3.51 ± 1.19 µM·h
- Cmax [1, 7]: 2690 nM
- Tmax [1, 7]: 27.5 min
- Cmax [1, 8]: 4270 nM
- Tmax [1, 8]: 70 min
- Cmax [1, 9]: 2740 ± 1100 nM
- Tmax [1, 9]: 26.7 min
- AUC(0-t) ([1]; Oatp1a/1b/2b1−/− mice, vehicle pretreatment, oral 10 mg/kg cabazitaxel, 0-2 h): 2.88 ± 0.616 µM·h
- Cmax [1, 10]: 2740 nM
- Tmax [1, 10]: 26.7 min
- Cmax [1, 11]: 4700 nM
- Tmax [1, 11]: 80 min
- Cmax [1, 12]: 2120 ± 398 nM
- Tmax [1, 12]: 24.2 min
- AUC(0-t) ([1]; Oatp1a/1b−/− mice, vehicle pretreatment, oral 10 mg/kg cabazitaxel, 0-2 h): 2.62 ± 0.417 µM·h
- Cmax [1, 13]: 2120 nM
- Tmax [1, 13]: 24.2 min
- Cmax [1, 14]: 4530 nM
- Tmax [1, 14]: 120 min
- Cmax [1, 15]: 2820 ± 694 nM
- Tmax [1, 15]: 25.8 min
- AUC(0-t) ([1]; wild-type mice, vehicle pretreatment, oral 10 mg/kg cabazitaxel, 0-2 h): 3.28 ± 1.32 µM·h
- Cmax [1, 16]: 2820 nM
- Tmax [1, 16]: 25.8 min
- AUC(0-t) ([1]; wild-type, wild-type mice, ritonavir 25 mg/kg oral, cabazitaxel 10 mg/kg oral): 7.62 µM·h
- AUC(0-t) ([1]; wild-type, wild-type mice, vehicle, cabazitaxel 10 mg/kg oral): 3.28 µM·h
- enhancement of AUC0-2h by ritonavir ([1]; transgenic OATP1B1 mice): 2.1 fold
- enhancement of AUC0-2h by ritonavir ([1]; transgenic OATP1B3 mice): 1.9 fold
- CLiver [1, 14]: 21554 pmol/g
- Cbrain [1, 14]: 235 pmol/g
- Pbrain, brain accumulation per h [1, 14]: 0.026 h⁻¹
- SIC (% of dose), small intestinal content [1, 14]: 1.34 % of dose
- CLiver [1, 16]: 2703 pmol/g
- Cbrain [1, 16]: 50.0 pmol/g
- Pbrain, brain accumulation per h [1, 16]: 0.013 h⁻¹
- SIC (% of dose), small intestinal content [1, 16]: 1.14 % of dose
- increase in AUC0-24h ([2]; male, Cyp3aXAV (FVB background), 10 mg/kg): 10.1 fold
- AUC(0-t) ([2]; male, Cyp3aXAV (human CYP3A in Cyp3a−/−, FVB background), 10 mg/kg): 1.24 ± 0.177 µM·h
- AUC0-24 h ([2]; male, FVB, Cyp3aXAV, 10 mg/kg): 12.515 µM·h
- AUC(0-t) ([2]; male, FVB, Cyp3aXAV, 10 mg/kg): 12.5 ± 5.41 µM·h
- AUC0-24 h ([2]; male, FVB, wild-type, 10 mg/kg): 72.771 µM·h
- AUC(0-t) ([2]; male, FVB, wild-type, 10 mg/kg): 72.8 ± 2.62 µM·h
- alteration in AUC0-24h ([2]; 1 mg/kg): no alteration
- Kp at 24 h ([3]; Cyp3aXAV (FVB background), po, 10 mg/kg): 1.52
- reduced AUC0-24h [3, 17]: 88.8 fold
- reduced Cmax [3, 17]: 12.1 fold
- decrease of liver concentration [3, 18]: 341.2 fold
- reduction of brain exposure [3, 18]: 167.6 fold
- Kp at 24 h ([3]; Cyp3a−/− (FVB background), po, 10 mg/kg): 0.231
- Tmax ([3]; Cyp3a−/− (FVB background), po, 10 mg/kg, Tmax): 125 min
- Kp at 24 h ([3]; wild-type FVB, po, 10 mg/kg): 1.17
SMILES: CO[C@H]1C(=O)[C@]2(C)[C@@H](OC)C[C@H]3OC[C@@]3(OC(C)=O)[C@H]2[C@H](OC(=O)c2ccccc2)[C@]2(O)C[C@H](OC(=O)[C@H](O)[C@@H](NC(=O)OC(C)(C)C)c3ccccc3)C(C)=C1C2(C)C [cabazitaxel]
- CLint, Intrinsic clearance ([4]; calculated from CL 48.5 and QH 80, sources (17, 18)): 123.17 L/h
- IIV CL [4]: 38.8 CV%
- Lag-time on Ka ([4]; observed for indinavir PK when co-administered with ritonavir, source (27)): 0.483 h
- Ka, First order absorption rate constant ([4]; reported for docetaxel, source (26)): 0.7 h⁻¹
- IIV K12 ([4]; source (17)): 84.0 CV%
- IIV K13 ([4]; source (17)): 64.2 CV%
- IIV K31 ([4]; source (17)): 28.2 CV%
- IIV VI ([4]; source (17)): 93.4 CV%
- IOV CL ([4]; source (17)): 19.4 CV%
- IOV V1 ([4]; source (17)): 45.3 CV%
- K12 ([4]; source (17)): 2.48 h⁻¹
- K13 ([4]; source (17)): 4.84 h⁻¹
- K21 ([4]; source (17)): 0.604 h⁻¹
- K31 ([4]; source (17)): 0.0266 h⁻¹
- V1 ([4]; source (17)): 26 L
